Experimental data: patent US20210308173A1, “PHARMACEUTICAL COMPOSITION COMPRISING CYCLODEXTRIN COMPLEXES OF ANETHOLE TRITHIONE OR DERIVATIVES THEREOF” (priority 2018, published 2021)
In brackets after ≈: the same amount, converted by molar mass. Like-named read-outs stand apart in the source and are kept apart here.

Assays:
[1] = Cyclodextrin solubilization screening of AOL; assay type: physicochemical; details: for CD/AOL molar ratio RM / CD/AOL weight ratio Rm: 25° C.; for solubility at 3 h / solubility at 20 h: 25 °C, thermodynamic from solid
Description: This assay evaluated the potential of different cyclodextrins to solubilize AOL. A solubilization screening is carried out with the four cyclodextrins (CD) selected from α-CD, γ-CD, HP-β-CD and SBE-β-CD.
Aqueous solutions containing 100 mM of cyclodextrin are prepared in pure water. An excess of AOL (approximately 5 mg/mL) is suspended in 2 mL of each of these cyclodextrin solutions. Each duplicate sample is shaken at 25° C. for 3 hours and 20 hours (vortex to 1400 rpm). Each sample is centrifuged (12,500 g) then filtered through a 0.45 μm membrane. The solubility of the AOL is quantified by HPLC as previously described (Example 2).

[2] = Solubility testing in buffer containing media; assay type: physicochemical; details: room temperature, read-out: AOL solubility
Description: The solubility of AOL was tested in aqueous HP-β-CD and SBE-β-CD media at various concentrations and pH levels at room temperature. Some initial tests, where the pH of the formulations was adjusted only by addition of HCl or NaOH solutions, did evidence high variation in pH and difficulties to reach the target pH. Therefore, it was decided to prepare samples containing a buffering agent to get a stable pH and to facilitate the preparation of the formulations.
A citrate buffer was used at pH 5.5 and phosphate buffer were used at pH 6.5 and 7.5. The solubility (mg/mL) is the mean of 2 independent replicates.

- CD/AOL molar ratio RM ([1]; HP-β-CD 100 mM, stirring 3 h): 218
- CD/AOL weight ratio Rm ([1]; HP-β-CD 100 mM, stirring 3 h): 1270
- CD/AOL molar ratio RM ([1]; HP-β-CD 100 mM, stirring 20 h): 252
- CD/AOL weight ratio Rm ([1]; HP-β-CD 100 mM, stirring 20 h): 1465
- CD/AOL molar ratio RM ([1]; SBE-β-CD 100 mM, stirring 3 h): 169
- CD/AOL weight ratio Rm ([1]; SBE-β-CD 100 mM, stirring 3 h): 1575
- CD/AOL molar ratio RM ([1]; SBE-β-CD 100 mM, stirring 20 h): 150
- CD/AOL weight ratio Rm ([1]; SBE-β-CD 100 mM, stirring 20 h): 1395
- solubility at 3 h ([1]; aqueous cyclodextrin solution, aqueous with cosolvent or surfactant or cyclodextrin, HP-β-CD 100 mM, stirring 3 h): 110 µg/mL (≈ 458 µM)
- solubility at 20 h ([1]; aqueous cyclodextrin solution, aqueous with cosolvent or surfactant or cyclodextrin, HP-β-CD 100 mM, stirring 20 h): 95.5 µg/mL (≈ 397 µM)
- solubility at 3 h ([1]; aqueous cyclodextrin solution, aqueous with cosolvent or surfactant or cyclodextrin, SBE-β-CD 100 mM, stirring 3 h): 142 µg/mL (≈ 592 µM)
- solubility at 20 h ([1]; aqueous cyclodextrin solution, aqueous with cosolvent or surfactant or cyclodextrin, SBE-β-CD 100 mM, stirring 20 h): 161 µg/mL (≈ 669 µM)
- solubility at 3 h ([1]; aqueous cyclodextrin solution, aqueous with cosolvent or surfactant or cyclodextrin, α-CD 100 mM, stirring 3 h): 8.83 µg/mL (≈ 36.7 µM)
- solubility at 20 h ([1]; aqueous cyclodextrin solution, aqueous with cosolvent or surfactant or cyclodextrin, α-CD 100 mM, stirring 20 h): 13.5 µg/mL (≈ 56.2 µM)
- solubility at 3 h ([1]; aqueous cyclodextrin solution, aqueous with cosolvent or surfactant or cyclodextrin, γ-CD 100 mM, stirring 3 h): 2.86 µg/mL (≈ 11.9 µM)
- solubility at 20 h ([1]; aqueous cyclodextrin solution, aqueous with cosolvent or surfactant or cyclodextrin, γ-CD 100 mM, stirring 20 h): 1.67 µg/mL (≈ 6.95 µM)
- solubility at 3 h ([1]; water, None-H2O, stirring 3 h): 0.22 µg/mL (≈ 0.915 µM)
- solubility at 20 h ([1]; water, None-H2O, stirring 20 h): 0.16 µg/mL (≈ 0.666 µM)
- CD/AOL molar ratio RM ([1]; α-CD 100 mM, stirring 3 h): 2721
- CD/AOL weight ratio Rm ([1]; α-CD 100 mM, stirring 3 h): 11010
- CD/AOL molar ratio RM ([1]; α-CD 100 mM, stirring 20 h): 1779
- CD/AOL weight ratio Rm ([1]; α-CD 100 mM, stirring 20 h): 7198
- CD/AOL molar ratio RM ([1]; γ-CD 100 mM, stirring 3 h): 8399
- CD/AOL weight ratio Rm ([1]; γ-CD 100 mM, stirring 3 h): 45316
- CD/AOL molar ratio RM ([1]; γ-CD 100 mM, stirring 20 h): 14405
- CD/AOL weight ratio Rm ([1]; γ-CD 100 mM, stirring 20 h): 77723
- solubility ([2]; aqueous SBE-β-CD medium with buffer, pH 5.5, aqueous with cosolvent or surfactant or cyclodextrin, SBE-β-CD 10.0% (w/w), Citrate (100 μM)): 165 µg/mL (≈ 686 µM)
- solubility ([2]; aqueous SBE-β-CD medium with buffer, pH 5.5, aqueous with cosolvent or surfactant or cyclodextrin, SBE-β-CD 40.0% (w/w), Citrate (100 μM)): 1140 µg/mL (≈ 4730 µM)
- solubility ([2]; aqueous SBE-β-CD medium with buffer, pH 6.5, aqueous with cosolvent or surfactant or cyclodextrin, SBE-β-CD 10.0% (w/w), Phosphate 6.5 (100 μM)): 168 µg/mL (≈ 699 µM)
- solubility ([2]; aqueous SBE-β-CD medium with buffer, pH 6.5, aqueous with cosolvent or surfactant or cyclodextrin, SBE-β-CD 40.0% (w/w), Phosphate 6.5 (100 μM)): 1210 µg/mL (≈ 5020 µM)
- solubility ([2]; aqueous SBE-β-CD medium with buffer, pH 7.5, aqueous with cosolvent or surfactant or cyclodextrin, SBE-β-CD 40.0% (w/w), Phosphate 7.5 (100 μM)): 1180 µg/mL (≈ 4920 µM)
- solubility ([2]; buffered aqueous HP-β-CD medium, pH 5.5, aqueous with cosolvent or surfactant or cyclodextrin, HP-β-CD 10.0% (w/w), Citrate (100 μM)): 79 µg/mL (≈ 329 µM)
- solubility ([2]; buffered aqueous HP-β-CD medium, pH 5.5, aqueous with cosolvent or surfactant or cyclodextrin, HP-β-CD 20.0% (w/w), Citrate (100 μM)): 212 µg/mL (≈ 882 µM)
- solubility ([2]; buffered aqueous HP-β-CD medium, pH 5.5, aqueous with cosolvent or surfactant or cyclodextrin, HP-β-CD 30.0% (w/w), Citrate (100 μM)): 505 µg/mL (≈ 2100 µM)
- solubility ([2]; buffered aqueous HP-β-CD medium, pH 5.5, aqueous with cosolvent or surfactant or cyclodextrin, HP-β-CD 40.0% (w/w), Citrate (100 μM)): 721 µg/mL (≈ 3000 µM)
- solubility ([2]; buffered aqueous HP-β-CD medium, pH 6.5, aqueous with cosolvent or surfactant or cyclodextrin, HP-β-CD 10.0% (w/w), Phosphate 6.5 (100 μM)): 111 µg/mL (≈ 462 µM)
- solubility ([2]; buffered aqueous HP-β-CD medium, pH 6.5, aqueous with cosolvent or surfactant or cyclodextrin, HP-β-CD 20.0% (w/w), Phosphate 6.5 (100 μM)): 274 µg/mL (≈ 1140 µM)
- solubility ([2]; buffered aqueous HP-β-CD medium, pH 6.5, aqueous with cosolvent or surfactant or cyclodextrin, HP-β-CD 30.0% (w/w), Phosphate 6.5 (100 μM)): 480 µg/mL (≈ 2000 µM)
- solubility ([2]; buffered aqueous HP-β-CD medium, pH 6.5, aqueous with cosolvent or surfactant or cyclodextrin, HP-β-CD 40.0% (w/w), Phosphate 6.5 (100 μM)): 676 µg/mL (≈ 2810 µM)
- solubility ([2]; buffered aqueous HP-β-CD medium, pH 7.5, aqueous with cosolvent or surfactant or cyclodextrin, HP-β-CD 10.0% (w/w), Phosphate 7.5 (100 μM)): 112 µg/mL (≈ 466 µM)
- solubility ([2]; buffered aqueous HP-β-CD medium, pH 7.5, aqueous with cosolvent or surfactant or cyclodextrin, HP-β-CD 20.0% (w/w), Phosphate 7.5 (100 μM)): 283 µg/mL (≈ 1180 µM)
- solubility ([2]; buffered aqueous HP-β-CD medium, pH 7.5, aqueous with cosolvent or surfactant or cyclodextrin, HP-β-CD 30.0% (w/w), Phosphate 7.5 (100 μM)): 540 µg/mL (≈ 2250 µM)
- solubility ([2]; buffered aqueous HP-β-CD medium, pH 7.5, aqueous with cosolvent or surfactant or cyclodextrin, HP-β-CD 40.0% (w/w), Phosphate 7.5 (100 μM)): 723 µg/mL (≈ 3010 µM)
- solubility ([2]; buffered aqueous SBE-β-CD medium, pH 5.5, aqueous with cosolvent or surfactant or cyclodextrin, SBE-β-CD 20.0% (w/w), Citrate (100 μM)): 369 µg/mL (≈ 1540 µM)
Structure (SMILES): COc1ccc(-c2cc(=S)ss2)cc1 [AOL, 5-(4-methoxyphenyl)-3H-1,2-dithiole-3-thione]
